Experimental findings from EP0011845A2, “Antiseborrhoeic hair treatment composition” (Henkel Kommanditgesellschaft auf Aktien, priority 1978, dated 1980) are described below.

The test system of the test is Meerschweinchen. Put plainly: Anti-dandruff test: oleic-acid-induced scaling and skin thickening on shaved guinea pig back. Conditions: 5 % test substance with 5 % Ölsäure in 70 % ethanol, topical on the back, 60 min exposure, 4 consecutive days, evaluated on day 7, inhibition vs skin treated with oleic acid only; for Hautdickenmessung Hemmung %: skin fold thickness by Cutimeter nach Götze; for Hautschuppenmessung Hemmung %: visual scaling score on scale 0-4. Type of test: in vivo. From the text:
Die Prüfung auf Antischuppenwirkung wurde in folgender Weise durchgeführt, wobei B) als mit Natronlauge auf einen pH-Wert von 6 neutralisiertes Produkt zum Einsatz gelangte:
Die Prüfsubstanzen wurden in 5 %iger Konzentration zusammen mit 5 % Ölsäure in 70 %igem Ethanol gelöst und in alternierender Reihenfolge und in rotierendem Schema auf den Rücken junger, geschorener weiblicher Meerschweinchen im Gewicht von 600 ± 50 g aufgetragen. Die Einwirkungszeit der Substanzen wurde dabei auf 60 Minuten begrenzt, da diese Zeit ausreichte, um eine Wirkung zu erzielen. Anschließend wurden die Tiere mit warmem Wasser 30 Sekunden lang abgeduscht. Die Reihenfolge der Tiere bei der Applikation wechselte dabei täglich, um Differenzen in der Einwirkungszeit zwischen dem ersten und letzten Tier der Gruppe auf ein Minimum zu begrenzen. Diese Behandlung geschah an vier aufeinanderfolgenden Tagen, darauf folgte eine Ruhezeit (Entwicklungszeit von drei Tagen). Am siebenten Tag wurde ausgewertet, und zwar a) kutimetrisch auf Hautfaltendicke instrumentell mit dem Cutimeter nach Götze und b) visuell auf Schuppenbildung bzw. Hemmung nach einer 4-Punkte-Skala folgender Definition: • 0 = keine Schuppen • 1 = leichte Schuppen • 2 = kräftige Schuppen • 3 = starke Schuppen mit Rötung • 4 = Krusten mit Aufrichten der Haare.
Die Versuchsgruppen bestanden aus jeweils 6 Tieren. Die Kollektive wurden mathematisch auf Homogenität geprüft und nach Eliminierung signifikant abweichender Tiere wurden Mittelwert und Streuung für jede Substanz berechnet. Diese wurden in Beziehung gesetzt zu den Werten der nur mit 5 % Ölsäure in 70 %igem Ethanol behandelten Haut und daraus die Signifikanz der Hemmwirkung bestimmt. Das Ergebnis der Prüfung ist der nachstehenden Tabelle 1 zu entnehmen.

Regarding `CCOC(=O)CCCCCNC(=O)c1cc(OC)c(OC)c(OC)c1` [Wirkstoff A, N-(3,4,5-Trimethoxy-benzoyl)-6-amino-capronsäure-ethylester], the “Hautdickenmessung Hemmung %” value turned out to be 15% and the “Hautschuppenmessung Hemmung %” value stood at 100%.

As to `COc1cc(C(=O)NCCCCCC(=O)O)cc(OC)c1OC` [Wirkstoff B, N-(3,4,5-Trimethoxy-benzoyl)-6-amino-carbonsäure], the “Hautdickenmessung Hemmung %” value turned out to be 10% and the “Hautschuppenmessung Hemmung %” value turned out to be 50%.
